From PMC8041708, “Characterization of MK6240, a tau PET tracer, in autopsy brain tissue from Alzheimer’s disease cases” (European Journal of Nuclear Medicine and Molecular Imaging, 2020)
Like-named read-outs stand apart in the source and are kept apart here.

Tests used:
[1] = molecular target: ^3H-MK6240 binding sites in the temporal cortex (Homo sapiens, UniProt P10636); experiment: Competitive binding assay with ^3H-MK6240 (0.5 nM) on AD temporal cortex homogenates; conditions: for Fraction of sites with super-high affinity for the competitor (%): radioligand ^3H-MK6240, temporal cortex; for IC50: 2-site competition model, temporal cortex
^3H-MK6240 binding sites in the temporal cortex, sequence (P10636 623-695 limits assumed): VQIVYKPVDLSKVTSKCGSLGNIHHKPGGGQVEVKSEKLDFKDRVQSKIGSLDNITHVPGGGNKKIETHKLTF
Description: (§1) Frozen post-mortem tissue from eight AD and seven control brains from the Netherlands Brain Bank (NBB) was homogenized in phosphate buffer saline (PBS) with additional 0.1% bovine serum albumin (BSA; […]) and protease/phosphatase inhibitors (10 μL/mL).
Competitive binding assays with ^3H-MK6240 (0.5 nM) were carried out for 90 min at 37 °C on temporal cortex homogenates from two AD brains, in PBS + 0.1% BSA (pH 7.4), using increasing concentrations of unlabelled MK6240, unlabelled THK5117 or unlabelled AV-1451 (1.10^−14–1.10^−5 M). The binding assay was terminated as described above. The half-maximal […] concentration (IC50) was determined using GraphPad Prism software and data were analysed using a 2-site competition model.

[2] = system: ^3H-THK5351 binding sites in the hippocampus; set-up: method as in Lemoine et al. [12]; conditions: ref Lemoine et al. [12], cited from earlier work; for Fraction of sites with super-high affinity for the competitor (%): radioligand ^3H-THK5351
[3] = molecular target: AD tissue; conditions: ref [7], [21], cited from earlier work
[4] = system: ^18F-AV-1451 binding sites in AD brains; set-up: method as in Ni et al. (unpublished data); conditions: versus ^18F-AV-1451, ref Ni et al. (unpublished data), cited from earlier work
[5] = system: ^3H-THK5351 binding sites in the hippocampus; experiment: Competitive binding assay with ^3H-THK5351 (1.5 nM) on AD hippocampus homogenates; set-up: species or system human
Description: as §1
Competitive binding assays were also carried out with ^3H-THK5351 (1.5 nM) in PBS + 0.1% BSA (pH 7.4) on hippocampus homogenates, using increasing concentrations of unlabelled MK6240 (1.10^−14–1.10^−5 M) in PBS + 0.1% BSA for 2 h at room temperature.

[6] = system: ^3H-AV-1451 binding sites; set-up: method as in Hostetler et al. [21]; conditions: ref Hostetler et al. [21]; cited from earlier work
[7] = site 2, high affinity, read-out: IC50(High)
[8] = site 1, super-high affinity, read-out: IC50(supHigh)

Structure (SMILES)	High affinity sites, fraction ([1]; ^3H-MK6240 competitions)	Fraction of sites with super-high affinity for the competitor (%) [1]	IC50 [1, 7]	Low affinity sites, fraction ([2]; ^3H-THK5351 competitions)	Fraction of sites with super-high affinity for the competitor (%) [2]	Kd ([3]; unit inferred)	Proportion of sites with high affinity for the competitor ([4]; frontal cortex)	Proportion of sites with high affinity for the competitor ([4]; temporal cortex of AD brains)	IC50 [1, 8]	Fraction of sites with super-high affinity for the competitor (%) ([5]; radioligand ^3H-THK5351, hippocampus)	Competition with ^3H-THK5351 ([5]; unlabelled MK6240 1.10^-14-1.10^-5 M, hippocampus of three AD patients)	Competition with ^3H-AV-1451 [6]	Low affinity sites, fraction ([1]; ^3H-MK6240 competitions)	IC50 ([1]; site 2, low affinity, read-out: IC50(low))	High affinity sites, fraction ([2]; ^3H-THK5351 competitions)	Kd [3]
Fc1ccc(-c2ccc3c(c2)[nH]c2ccncc23)cn1 [AV-1451]	26%	74%	2 nM	65%	35%	0.6 to 3.7 nM	61%	88%								
Nc1c(F)ccc2cnc(-n3ccc4ccncc43)cc12 [MK6240]	42%	58%	12 nM						0.001 nM	0%	did not compete	lack of competition				
CNc1ccc(-c2ccc3cc(OCC(O)CF)ccc3n2)cc1 (stereo not drawn) [THK5117]		37%			46%				0.002 nM				63%	304 nM	54%	2.2 nM
CNc1ccc(-c2ccc3cc(OC[C@H](O)CF)ccc3n2)cn1 [THK5351]					62%										38%	
